Measured values as given in US7192906B2, “Substituted pyrazole derivatives, production process thereof, and herbicide compositions containing the derivatives” (SDS Biotech K.K., priority 2001, dated 2007).

Columns and labels:
Type in all cases: in vivo
[1] = tested on: wheat (Triticum aestivum); test: Test Example 2 upland soil treatment, crop phytotoxicity; conditions: Table 5, upland soil treatment, index 0-5
Method in brief: (§1)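 Seeds are sown into upland soil and covered by roughly 1 cm of soil, then the compound, formulated as a wettable powder and diluted with water, is applied uniformly to the soil surface the following day at 1 kg active ingredient per hectare. Herbicidal effect or phytotoxicity is graded 0 to 5 after 21 days.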

[2] = tested on: soybean (Glycine max); test: as above; conditions: Table 5, upland soil treatment, index 0-5
Method in brief: as §1

[3] = tested on: Setaria viridis; test: Test Example 2 upland soil treatment; conditions: Table 5, upland soil treatment, index 0-5
Method in brief: as §1

[4] = tested on: Stellaria media; test: Test Example 2 upland soil treatment; conditions: Table 5, upland soil treatment, index 0-5
Method in brief: as §1

[5] = tested on: Digitaria adscendens; test: Test Example 2 upland soil treatment; conditions: Table 5, upland soil treatment, index 0-5
Method in brief: as §1

[6] = tested on: Chenopodium album; test: Test Example 2 upland soil treatment; conditions: Table 5, upland soil treatment, index 0-5
Method in brief: as §1

[7] = tested on: Rice (Oryza sativa); test: Test Example 3 paddy field treatment, crop phytotoxicity; conditions: Table 6, paddy field treatment, transplanted rice, active ingredient 1 kg per hectare, 21st day after dropping, index 0-5
Experimental: (§2) A plastic pot of 130 cm^2 was filled with paddy soil, and soil puddling was carried out to adjust the submerged depth to 4 cm. Subsequently, seeds of Echinochloa crusgalli, Monochoria vaginalis, Ammannia multiflora and Scirpus juncoides were sowed, and rice (Oryza sative, variety: Koshihikari) of two-leaf period was transplanted by 2 rice plants of 1 stub per pot at a depth of 3 cm. On the 10th day after the transplantation, the wettable powder prepared in Formulation Example 1 was diluted with water such that the amount of the active ingredient became 1 kg per hectare, and then dropped to diffuse on the water surface. On the 21st day after the dropping, observation and evaluation were carried out according to the aforesaid criteria.
(§3) Herbicidal activity was evaluated based on the following criteria.
(§4) • 5: herbicidal effect of not less than 90%, or phytotoxicity of 90% or more • 4: herbicidal effect of not less than 70% and less than 90%, or phytotoxicity of 70% or more and less than 90% • 3: herbicidal effect of not less than 50% and less than 70%, or phytotoxicity of 50% or more and less than 70% • 2: herbicidal effect of not less than 30% and less than 50%, or phytotoxicity of 30% or more and less than 50% • 1: herbicidal effect of not less than 10% and less than 30%, or phytotoxicity of 10% or more and less than 30% • 0: herbicidal effect of not less than 0% and less than 10%, or phytotoxicity of 0% or more and less than 10%

[8] = tested on: Scirpus juncoides; test: Test Example 3 paddy field treatment; conditions: Table 6, paddy field treatment, active ingredient 1 kg per hectare, 21st day after dropping, index 0-5
Experimental: as §2, §3, §4

[9] = tested on: Ammannia multiflora; test: Test Example 3 paddy field treatment; conditions: Table 6, paddy field treatment, active ingredient 1 kg per hectare, 21st day after dropping, index 0-5
Experimental: as §2, §3, §4

[10] = tested on: Monochoria vaginalis; test: Test Example 3 paddy field treatment; conditions: Table 6, paddy field treatment, active ingredient 1 kg per hectare, 21st day after dropping, index 0-5
Experimental: as §2, §3, §4

[11] = tested on: Echinochloa crusgalli; test: Test Example 3 paddy field treatment; conditions: Table 6, paddy field treatment, active ingredient 1 kg per hectare, 21st day after dropping, index 0-5
Experimental: as §2, §3, §4

[12] = tested on: wheat (Triticum aestivum); test: Test Example 1 upland field foliage treatment, crop phytotoxicity; conditions: Table 4, upland field foliage treatment, index 0-5
Method in brief: (§5)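 Post-emergence foliar spray, 1 kg a.i./ha, wettable powder diluted in water, applied 14 d after sowing in upland soil. Rating 21 d post-application, 0–5 scale: 5 ≥90%, 4 70–<90%, 3 50–<70%, 2 30–<50%, 1 10–<30%, 0 <10% effect or injury.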

[13] = tested on: soybean (Glycine max); test: as above; conditions: Table 4, upland field foliage treatment, index 0-5
Method in brief: as §5

[14] = tested on: Setaria viridis; test: Test Example 1 upland field foliage treatment; conditions: Table 4, upland field foliage treatment, index 0-5
Method in brief: as §5

[15] = tested on: Stellaria media; test: Test Example 1 upland field foliage treatment; conditions: Table 4, upland field foliage treatment, index 0-5
Method in brief: as §5

[16] = tested on: Digitaria adscendens; test: Test Example 1 upland field foliage treatment; conditions: Table 4, upland field foliage treatment, index 0-5
Method in brief: as §5

[17] = tested on: Chenopodium album; test: Test Example 1 upland field foliage treatment; conditions: Table 4, upland field foliage treatment, index 0-5
Method in brief: as §5

Row | SMILES | Herbicidal activity (phytotoxicity) TA: Wheat (Triticum aestivum) [1] | Herbicidal activity (phytotoxicity) GM: Soybean (Glycine max) [2] | Herbicidal activity SV: Setaria viridis [3] | Herbicidal activity SM: Stellaria media [4] | Herbicidal activity DA: Digitaria adscendens [5] | Herbicidal activity CA: Chenopodium album [6] | Herbicidal activity (phytotoxicity) OS [7] | Herbicidal activity SJ [8] | Herbicidal activity AM [9] | Herbicidal activity MV [10] | Herbicidal activity EC [11] | Herbicidal activity (phytotoxicity) TA: Wheat (Triticum aestivum) [12] | Herbicidal activity (phytotoxicity) GM: Soybean (Glycine max) [13] | Herbicidal activity SV: Setaria viridis [14] | Herbicidal activity SM: Stellaria media [15] | Herbicidal activity DA: Digitaria adscendens [16] | Herbicidal activity CA: Chenopodium album [17]
1 | CNC(=O)C(Cn1cc(C)c(-c2cccc(F)c2F)n1)=NOC [Compound 55] | 0 (herbicidal effect of not less than 0% and less than 10%, or phytotoxicity of 0% or more and less than 10%) | 0 (herbicidal effect of not less than 0% and less than 10%, or phytotoxicity of 0% or more and less than 10%) | 5 (herbicidal effect of not less than 90%, or phytotoxicity of 90% or more) | 5 (herbicidal effect of not less than 90%, or phytotoxicity of 90% or more) | 5 (herbicidal effect of not less than 90%, or phytotoxicity of 90% or more) | 5 (herbicidal effect of not less than 90%, or phytotoxicity of 90% or more) | 0 (herbicidal effect of not less than 0% and less than 10%, or phytotoxicity of 0% or more and less than 10%) | 5 (herbicidal effect of not less than 90%, or phytotoxicity of 90% or more) | 5 (herbicidal effect of not less than 90%, or phytotoxicity of 90% or more) | 5 (herbicidal effect of not less than 90%, or phytotoxicity of 90% or more) | 5 (herbicidal effect of not less than 90%, or phytotoxicity of 90% or more) |  |  |  |  |  | 
2 | CNC(=O)C(Cn1cc(C)c(-c2ccc(F)c(C)c2)n1)=NOC [Compound 75] | 0 (herbicidal effect of not less than 0% and less than 10%, or phytotoxicity of 0% or more and less than 10%) | 1 (herbicidal effect of not less than 10% and less than 30%, or phytotoxicity of 10% or more and less than 30%) | 4 (herbicidal effect of not less than 70% and less than 90%, or phytotoxicity of 70% or more and less than 90%) | 5 (herbicidal effect of not less than 90%, or phytotoxicity of 90% or more) | 4 (herbicidal effect of not less than 70% and less than 90%, or phytotoxicity of 70% or more and less than 90%) | 5 (herbicidal effect of not less than 90%, or phytotoxicity of 90% or more) |  |  |  |  |  | 0 (herbicidal effect of not less than 0% and less than 10%, or phytotoxicity of 0% or more and less than 10%) | 0 (herbicidal effect of not less than 0% and less than 10%, or phytotoxicity of 0% or more and less than 10%) | 5 (herbicidal effect of not less than 90%, or phytotoxicity of 90% or more) | 5 (herbicidal effect of not less than 90%, or phytotoxicity of 90% or more) | 5 (herbicidal effect of not less than 90%, or phytotoxicity of 90% or more) | 5 (herbicidal effect of not less than 90%, or phytotoxicity of 90% or more)
3 | CNC(=O)C(Cn1cc(C)c(-c2ccccc2)n1)=NOCc1ccccc1 [Compound 106] | 0 (herbicidal effect of not less than 0% and less than 10%, or phytotoxicity of 0% or more and less than 10%) | 0 (herbicidal effect of not less than 0% and less than 10%, or phytotoxicity of 0% or more and less than 10%) | 3 (herbicidal effect of not less than 50% and less than 70%, or phytotoxicity of 50% or more and less than 70%) | 4 (herbicidal effect of not less than 70% and less than 90%, or phytotoxicity of 70% or more and less than 90%) | 4 (herbicidal effect of not less than 70% and less than 90%, or phytotoxicity of 70% or more and less than 90%) | 4 (herbicidal effect of not less than 70% and less than 90%, or phytotoxicity of 70% or more and less than 90%) |  |  |  |  |  | 0 (herbicidal effect of not less than 0% and less than 10%, or phytotoxicity of 0% or more and less than 10%) | 0 (herbicidal effect of not less than 0% and less than 10%, or phytotoxicity of 0% or more and less than 10%) | 3 (herbicidal effect of not less than 50% and less than 70%, or phytotoxicity of 50% or more and less than 70%) | 3 (herbicidal effect of not less than 50% and less than 70%, or phytotoxicity of 50% or more and less than 70%) | 3 (herbicidal effect of not less than 50% and less than 70%, or phytotoxicity of 50% or more and less than 70%) | 3 (herbicidal effect of not less than 50% and less than 70%, or phytotoxicity of 50% or more and less than 70%)
4 | CON=C(Cn1cc(C)c(-c2ccccc2)n1)C(=O)NN(C)C [Compound 124] | 0 (herbicidal effect of not less than 0% and less than 10%, or phytotoxicity of 0% or more and less than 10%) | 0 (herbicidal effect of not less than 0% and less than 10%, or phytotoxicity of 0% or more and less than 10%) | 3 (herbicidal effect of not less than 50% and less than 70%, or phytotoxicity of 50% or more and less than 70%) | 4 (herbicidal effect of not less than 70% and less than 90%, or phytotoxicity of 70% or more and less than 90%) | 3 (herbicidal effect of not less than 50% and less than 70%, or phytotoxicity of 50% or more and less than 70%) | 5 (herbicidal effect of not less than 90%, or phytotoxicity of 90% or more) |  |  |  |  |  | 0 (herbicidal effect of not less than 0% and less than 10%, or phytotoxicity of 0% or more and less than 10%) | 0 (herbicidal effect of not less than 0% and less than 10%, or phytotoxicity of 0% or more and less than 10%) | 3 (herbicidal effect of not less than 50% and less than 70%, or phytotoxicity of 50% or more and less than 70%) | 4 (herbicidal effect of not less than 70% and less than 90%, or phytotoxicity of 70% or more and less than 90%) | 3 (herbicidal effect of not less than 50% and less than 70%, or phytotoxicity of 50% or more and less than 70%) | 4 (herbicidal effect of not less than 70% and less than 90%, or phytotoxicity of 70% or more and less than 90%)
